Experiments:
[1] = Acute toxicity, single intragastric administration, Kerber method; conditions: mouse, in vivo, po; white outbred mice 20-22 g, single intragastric administration, Kerber method
Description: (§1) The acute toxicity of the compound 1a was studied in white outbred mice weighting 20-22 g following single intragastric administration using Kerber method.

white outbred mice = experiment: as above; conditions: mouse, in vivo
Description: as §1

[2] = system: MPTP-induced parkinsonism; experiment: Antiparkinson activity in rats in 30 days administration of MPTP and the agent (locomotor activity, TruScan); assay type: in vivo; conditions: for general movement activity (number of movement acts) / movement activity / movement distance / movement speed / number of explored holes / number of rearings / time of exploratory activity: Wistar rats, MPTP 30 mg/kg (table; text 40 mg/kg) i.p. daily 30 days, day 30, 3 min
Experimental: (§2) Parkinsonism was induced by single and multiple intraperitoneal administration of MPTP in 30 mg/kg doses in male mice of C57B1/6 strain and Wistar rats.
(§3) Antiparkinson activity of the agents was studied by the degree of hypokinesia and locomotor activity using Truscan apparatus (USA) or by mortality percentage.
Experiments were carried out in male Wistar rats in groups of 10 mice each. Parkinson syndrome was induced by intraperitoneal administration of 40 mg/kg dose of MPTP daily during 30 days. Saline was administered to intact control group. The agent ((1R,2R,6S)-1a in 20 mg/kg dose and levodopa (the drug of comparison) in 10 mg/kg dose were administered per os 4 hours after MPTP injection daily during 30 days. Hypokinesia was evaluated on 30 day of experiment by the degree of locomotor activity using TruScan apparatus (USA) during 3 minutes.

[3] = system: MPTP-induced parkinsonism; experiment: Antiparkinson activity in mice after 3 days administration of MPTP (locomotor activity, TruScan); assay type: in vivo; conditions: for general movement activity (number of movement acts) / movement activity / movement distance / movement speed / number of explored holes / number of rearings / time of exploratory activity: 3 min
Experimental: as §2, §3
Experiments were carried out in male mice of C57B1/6 strain in groups of 10 mice each. Parkinson syndrome was induced by intraperitoneal administration of 30 mg/kg dose of MPTP during 3 days. The agent ((1R,2R,6S)-1a was administered per os in 20 mg/kg and 30 mg/kg doses 24 hours after the last MPTP injection. Hypokinesia was evaluated 1 hour after the agent administration by the degree of locomotor activity using TruScan apparatus (USA) during 3 minutes.
Experiments were carried out in male mice of C57B1/6 strain in groups of 10 mice each. Parkinson syndrome was induced by intraperitoneal administration of 30 mg/kg dose of MPTP daily during 3 days. Agent (1R,2R,6S)-1b with ee 60% in 20 mg/kg dose was administered per os 24 hours after the last MPTP injection. Hypokinesia was evaluated 1.5 hours after MPTP injection by the degree of locomotor activity using TruScan apparatus (USA) during 3 minutes.

[4] = system: MPTP-induced parkinsonism; experiment: Antiparkinson activity in mice in 10 days administration of MPTP and the agent (mortality); assay type: in vivo; conditions: for Mortality, %: C57B1/6 mice, MPTP 30 mg/kg i.p. daily 10 days, day 11
Experimental: as §3
Experiments were carried out in male mice of C57B1/6 strain in groups of 10 mice each. Parkinson syndrome was induced by intraperitoneal administration of 30 mg/kg dose of MPTP daily during 10 days. The agent ((1R,2R,6S)-1a in 20 mg/kg dose and levodopa (the drug of comparison) in 10 mg/kg dose were administered per os 4 hours after MPTP injection daily during 10 days. The effect was evaluated by the number of surviving animals on the 11 day of the experiment.

[5] = system: MPTP-induced parkinsonism; experiment: Antiparkinson activity in mice after single administration of MPTP (locomotor activity, TruScan); assay type: in vivo; conditions: for general movement activity (number of movement acts) / movement activity / movement distance / movement speed / number of explored holes / number of rearings / time of exploratory activity: single MPTP 30 mg/kg i.p., 1.5 h after MPTP, 3 min; for antiparkinson activity (in words): mice, single administration of MPTP, doses 10 and/or 20 mg/kg per os as stated in the sentence
Experimental: as §2, §3
(§4) Experiments were carried out in male mice of C57B1/6 strain in groups of 10 mice each. Parkinson syndrome was induced by intraperitoneal administration of 30 mg/kg dose of MPTP, saline was administered to intact control group. The agent was administered per os 15 minutes after the reproduction of Parkinson syndrome. Hypokinesia was evaluated 1.5 hours after MPTP injection by the degree of locomotor activity using TruScan apparatus (USA) during 3 minutes.
as §4, with “agents in 20 mg/kg doses were” for “agent was”
as §4, with “agent in 10 mg/kg and 20 mg/kg doses were” for “agent was”

[6] = agent 20 mg/kg per os 4 h after MPTP daily
[7] = C57B1/6 mice, MPTP 30 mg/kg i.p. 3 days, agent 20 mg/kg per os 24 h after last MPTP, 1 h after agent
[8] = C57B1/6 mice, MPTP 30 mg/kg i.p. 3 days, agent 30 mg/kg per os 24 h after last MPTP, 1 h after agent
[9] = C57B1/6 mice, agent 10 mg/kg per os 15 min after
[10] = C57B1/6 mice, agent 20 mg/kg per os 15 min after
[11] = Table 5: C57B1/6 mice, agents 20 mg/kg per os 15 min after
[12] = Table 7: C57B1/6 mice, MPTP 30 mg/kg i.p. daily 3 days, agent 20 mg/kg per os 24 h after last MPTP
[13] = Table 6: C57B1/6 mice, agent 10 mg/kg per os 15 min after
[14] = Table 6: C57B1/6 mice, agent 20 mg/kg per os 15 min after
[15] = L-DOPA 10 mg/kg per os 4 h after MPTP daily

With `C=C(C)C1CC=C(C)C(O)C1O` (stereo not drawn) [1a, 3-methyl-6-(1-methylethenyl)cyclohex-3-ene-1,2-diol] the LD50 [1] was 4250 mg/kg and the “acute toxicity (in words)” value (white outbred mice) was “low toxicity”.
With `C=C(C)[C@@H]1CC=C(C)[C@@H](O)[C@@H]1O` [(1R,2R,6S)-1a with ee 60%, (1R,2R,6S)-3-methyl-6-(1-methylethenyl)cyclohex-3-ene-1,2-diol] the “general movement activity (number of movement acts)” value (“general movement activity” below) [2, 6] was 81.89 ± 5.5, the movement activity [2, 6] was 62.56 ± 5.2 s and the movement distance [2, 6] was 305.58 ± 30.38 cm. The movement speed [2, 6] was 2.5 ± 0.25 cm/s, the “number of explored holes” value [2, 6] was 4.3 ± 0.73 and the number of rearings [2, 6] was 10.67 ± 1.18. For the same compound, the “time of exploratory activity” value [2, 6] was 1.75 ± 0.5 s, the “antiparkinson activity (in words)” value ([2]; rats, 20 mg/kg, 30 days administration of MPTP and the agent) was “remarkable antiparkinson activity” and the “comparison with levodopa (in words)” value ([2]; rats, 30 days, agent 20 mg/kg vs levodopa 10 mg/kg) was “as good as the drug of comparison levodopa”. The “general movement activity” value [3, 7] was 81.9 ± 3.7, the movement activity [3, 7] was 70.1 ± 3.9 s and the movement distance [3, 7] was 351.8 ± 26.4 cm. The movement speed [3, 7] was 2.9 ± 0.2 cm/s, the “number of explored holes” value [3, 7] was 8.8 ± 1.0 and the number of rearings [3, 7] was 11.1 ± 0.9. The “time of exploratory activity” value [3, 7] was 3.9 ± 0.5 s, the “general movement activity” value [3, 8] was 81.8 ± 2.6 and the movement activity [3, 8] was 66.8 ± 3.7 s. For the same compound, the movement distance [3, 8] was 335.5 ± 28.9 cm, the movement speed [3, 8] was 2.7 ± 0.2 cm/s and the “number of explored holes” value [3, 8] was 3.8 ± 0.6. The number of rearings [3, 8] was 13 ± 1.7, the “time of exploratory activity” value [3, 8] was 1.6 ± 0.3 s and the “Mortality, %” value [4, 6] was 10%. For the same compound, the “effect on mortality (in words)” value ([4]; mice, 20 mg/kg, 10 days of administration of the agents and MPTP) was “considerably reduces mortality”, the “comparison with levodopa (in words)” value ([4]; mice, mortality test, agent 20 mg/kg vs levodopa 10 mg/kg) was “as good as the drug of comparison levodopa” and the “general movement activity” value [5, 9] was 77.2 ± 5. The movement activity [5, 9] was 57 ± 5.3 s, the movement distance [5, 9] was 257.3 ± 29.5 cm and the movement speed [5, 9] was 2.1 ± 0.25 cm/s. For the same compound, the “number of explored holes” value [5, 9] was 7.7 ± 1.07, the number of rearings [5, 9] was 5.8 ± 0.6 and the “time of exploratory activity” value [5, 9] was 3.6 ± 0.7 s. For the same compound, the “general movement activity” value [5, 10] was 80.7 ± 4, the movement activity [5, 10] was 59 ± 4 s and the movement distance [5, 10] was 276.5 ± 24 cm. The movement speed [5, 10] was 2.25 ± 0.2 cm/s, the “number of explored holes” value [5, 10] was 7.6 ± 1.7 and the number of rearings [5, 10] was 8.5 ± 2. The “time of exploratory activity” value [5, 10] was 4.4 ± 1 s and the “antiparkinson activity (in words)” value [5] was “remarkable antiparkinson activity”.
For `C=C(C)[C@@H]1CC=C(C)[C@@H](O)[C@@H]1O` [(1R,2R,6S)-1a with ee 94%, (1R,2R,6S)-3-methyl-6-(1-methylethenyl)cyclohex-3-ene-1,2-diol], the “general movement activity” value [5, 11] was 78.6 ± 5.0, the movement activity [5, 11] was 64.0 ± 5.5 s and the movement distance [5, 11] was 332.6 ± 39.6 cm. The movement speed [5, 11] was 2.7 ± 0.3 cm/s, the “number of explored holes” value [5, 11] was 3.2 ± 0.9 and the number of rearings [5, 11] was 13.1 ± 2.5. The “time of exploratory activity” value [5, 11] was 1.5 ± 0.4 s.
With `C=C(C)[C@@H]1CC=C(C)[C@@H](O)[C@@H]1O` [(1R,2R,6S)-1b with ee 60%, diacetate (1R,2R,6S)-3-methyl-6-(1-methylethenyl)cyclohex-3-ene-1,2-diol] the “general movement activity” value [3, 12] was 83.9 ± 3.5, the movement activity [3, 12] was 64.1 ± 5.0 s and the movement distance [3, 12] was 310.0 ± 35.6 cm. The movement speed [3, 12] was 2.5 ± 0.3 cm/s, the “number of explored holes” value [3, 12] was 6.0 ± 1.0 and the number of rearings [3, 12] was 10.4 ± 1.5. The “time of exploratory activity” value [3, 12] was 3.2 ± 0.8 s, the “antiparkinson activity (in words)” value ([3]; mice, 3 days administration of MPTP, doses 20 (and 30) mg/kg per os as stated in the sentence) was “remarkable antiparkinson activity” and the “general movement activity” value [5, 13] was 69.9 ± 6.7. It also gave a movement activity [5, 13] of 51.5 ± 7.5 s, a movement distance [5, 13] of 244.4 ± 4.5 cm and a movement speed [5, 13] of 2.0 ± 0.4 cm/s. The “number of explored holes” value [5, 13] was 3.4 ± 1.1, the number of rearings [5, 13] was 6.4 ± 1.6 and the “time of exploratory activity” value [5, 13] was 1.3 ± 0.5 s. The “general movement activity” value [5, 14] was 84.8 ± 4.4, the movement activity [5, 14] was 58.8 ± 4.5 s and the movement speed [5, 14] was 1.9 ± 0.4 cm/s. The “number of explored holes” value [5, 14] was 3.2 ± 0.5, the number of rearings [5, 14] was 10.8 ± 1.7 and the “time of exploratory activity” value [5, 14] was 2.0 ± 0.3 s.
With `C=C(C)[C@H]1CC=C(C)[C@H](O)[C@H]1O` [(1S,2S,6R)-1a with ee 97%, (1S,2S,6R)-3-methyl-6-(1-methylethenyl)cyclohex-3-ene-1,2-diol] the “general movement activity” value [5, 11] was 57.9 ± 6.0, the movement activity [5, 11] was 34.9 ± 4.3 s and the movement distance [5, 11] was 147.8 ± 20.3 cm. The movement speed [5, 11] was 1.13 ± 0.15 cm/s, the “number of explored holes” value [5, 11] was 2.5 ± 0.9 and the number of rearings [5, 11] was 4.4 ± 1.4. The “time of exploratory activity” value [5, 11] was 1.2 ± 0.6 s and the “antiparkinson activity (in words)” value [5] was “remarkable antiparkinson activity”.
For `N[C@@H](Cc1ccc(O)c(O)c1)C(=O)O` [L-DOPA, reference compound], the “general movement activity” value [2, 15] was 86 ± 3.86, the movement activity [2, 15] was 65.09 ± 2.92 s and the movement distance [2, 15] was 316.77 ± 16.2 cm. For the same compound, the movement speed [2, 15] was 2.57 ± 0.13 cm/s, the “number of explored holes” value [2, 15] was 4.63 ± 0.56 and the number of rearings [2, 15] was 9.63 ± 1.16. The “time of exploratory activity” value [2, 15] was 1.66 ± 0.25 s and the “Mortality, %” value [4, 15] was 20%.

From US8809391B2, “Agent for treating Parkinson's disease” (OOO “Tomskaya Farmatsevticheskaya Fabrika”, priority 2009, dated 2014)
